PubChem BioAssay AID1963958 (Molecular Pharmacology Branch, DTP, NCI, 2024)

Test system: MDA-MB-231 multicell spheroids, viability
Experiment: Anticancer human tumor MDA-MB-231 cell line growth inhibition [PI3K];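 note: spheroids exposed to agents for seven days before reading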;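 for viability, T/C: percent of vehicle control luminescence with DMSO treated spheroids as 100%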
Details: for IC50: curve of first compound; for viability, T/C: stronger effect = lower value
Outline: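 Complex 3D spheroids (cancer cells + endothelial HUVEC + mesenchymal stem cells); drug pairs of targeted agent x inavolisib/alpelisib/duvelisib/copanlisib; half-log series from ~Cmax, max 10 microM if Cmax unknown; endpoint viability.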

[1] = second compound 0.0316 µM, first compound 0.000316 µM
[2] = second compound 0.0316 µM, first compound 0.001 µM
[3] = second compound 0.0316 µM, first compound 0.00316 µM
[4] = second compound 0.0316 µM, first compound 0.01 µM
[5] = second compound 0.0316 µM, first compound 0.0316 µM
[6] = second compound 0.0316 µM, first compound 0.1 µM
[7] = second compound 0.1 µM, first compound 0.000316 µM
[8] = second compound 0.1 µM, first compound 0.001 µM
[9] = second compound 0.1 µM, first compound 0.00316 µM
[10] = second compound 0.1 µM, first compound 0.01 µM
[11] = second compound 0.1 µM, first compound 0.0316 µM
[12] = second compound 0.1 µM, first compound 0.1 µM
[13] = second compound 0.316 µM, first compound 0.000316 µM
[14] = second compound 0.316 µM, first compound 0.001 µM
[15] = second compound 0.316 µM, first compound 0.00316 µM
[16] = second compound 0.316 µM, first compound 0.01 µM
[17] = second compound 0.316 µM, first compound 0.0316 µM
[18] = second compound 0.316 µM, first compound 0.1 µM
[19] = second compound 1 µM, first compound 0.000316 µM
[20] = second compound 1 µM, first compound 0.001 µM
[21] = second compound 1 µM, first compound 0.00316 µM
[22] = second compound 1 µM, first compound 0.01 µM
[23] = second compound 1 µM, first compound 0.0316 µM
[24] = second compound 1 µM, first compound 0.1 µM
[25] = second compound 3.16 µM, first compound 0.000316 µM
[26] = second compound 3.16 µM, first compound 0.001 µM
[27] = second compound 3.16 µM, first compound 0.00316 µM
[28] = second compound 3.16 µM, first compound 0.01 µM
[29] = second compound 3.16 µM, first compound 0.0316 µM
[30] = second compound 3.16 µM, first compound 0.1 µM
[31] = second compound 10 µM, first compound 0.000316 µM
[32] = second compound 10 µM, first compound 0.001 µM
[33] = second compound 10 µM, first compound 0.00316 µM
[34] = second compound 10 µM, first compound 0.01 µM
[35] = second compound 10 µM, first compound 0.0316 µM
[36] = second compound 10 µM, first compound 0.1 µM

CC(=O)c1c(C)c2cnc(Nc3ccc(N4CCNCC4)cn3)nc2n(C2CCCC2)c1=O + CC(Nc1ncnc2nc[nH]c12)c1cc2cccc(Cl)c2c(=O)n1-c1ccccc1 showed an IC50 (second compound 0.0316 µM) greater than 100 nM, an IC50 (second compound 0.1 µM) of 86.2 nM and an IC50 (second compound 0.316 µM) of 75.3 nM. It also gave an IC50 (second compound 1 µM) of 36.1 nM, an IC50 (second compound 3.16 µM) of 11.4 nM and an IC50 (second compound 10 µM) of less than 0.316 nM. It also gave a viability, T/C [1] of 96.8%, a viability, T/C [2] of 107% and a viability, T/C [3] of 92.6%. The viability, T/C [4] was 90.6%, the viability, T/C [5] was 72.8% and the viability, T/C [6] was 53.2%. The viability, T/C [7] was 98.8%, the viability, T/C [8] was 99.6% and the viability, T/C [9] was 96.1%. For the same compound, the viability, T/C [10] was 80.5%, the viability, T/C [11] was 71.3% and the viability, T/C [12] was 46.5%. The viability, T/C [13] was 86.8%, the viability, T/C [14] was 90% and the viability, T/C [15] was 92.6%. For the same compound, the viability, T/C [16] was 83.5%, the viability, T/C [17] was 66.6% and the viability, T/C [18] was 44.6%. It also gave a viability, T/C [19] of 79.2%, a viability, T/C [20] of 79.9% and a viability, T/C [21] of 78.4%. It also gave a viability, T/C [22] of 65.1%, a viability, T/C [23] of 52.9% and a viability, T/C [24] of 36%. It also gave a viability, T/C [25] of 62.5%, a viability, T/C [26] of 60.1% and a viability, T/C [27] of 55.3%. It also gave a viability, T/C [28] of 51.1%, a viability, T/C [29] of 43.1% and a viability, T/C [30] of 29.6%. For the same compound, the viability, T/C [31] was 42.6%, the viability, T/C [32] was 47.5% and the viability, T/C [33] was 41.2%. It also gave a viability, T/C [34] of 38%, a viability, T/C [35] of 36.1% and a viability, T/C [36] of 19%.

Work on CC(C)n1nc(-c2ccc3oc(N)nc3c2)c2c(N)ncnc21 + CC(Nc1ncnc2nc[nH]c12)c1cc2cccc(Cl)c2c(=O)n1-c1ccccc1 yielded an IC50 (second compound 0.0316 µM) of 64.4 nM, an IC50 (second compound 0.1 µM) of 65.5 nM and an IC50 (second compound 0.316 µM) of 51.9 nM. For the same compound, the IC50 (second compound 1 µM) was 32.7 nM, the IC50 (second compound 3.16 µM) was 12.5 nM and the IC50 (second compound 10 µM) was less than 0.316 nM. For the same compound, the viability, T/C [1] was 94.1%, the viability, T/C [2] was 101% and the viability, T/C [3] was 93.1%. For the same compound, the viability, T/C [4] was 85.6%, the viability, T/C [5] was 65.5% and the viability, T/C [6] was 40.5%. The viability, T/C [7] was 101%, the viability, T/C [8] was 100% and the viability, T/C [9] was 91.9%. It also gave a viability, T/C [10] of 79.7%, a viability, T/C [11] of 66.2% and a viability, T/C [12] of 41%. It also gave a viability, T/C [13] of 91.7%, a viability, T/C [14] of 90.2% and a viability, T/C [15] of 87.2%. The viability, T/C [16] was 72.8%, the viability, T/C [17] was 58.8% and the viability, T/C [18] was 39.4%. It also gave a viability, T/C [19] of 80.5%, a viability, T/C [20] of 78% and a viability, T/C [21] of 76.1%. For the same compound, the viability, T/C [22] was 68.5%, the viability, T/C [23] was 50% and the viability, T/C [24] was 39.2%. For the same compound, the viability, T/C [25] was 62.1%, the viability, T/C [26] was 64.9% and the viability, T/C [27] was 57.8%. The viability, T/C [28] was 50.8%, the viability, T/C [29] was 43.4% and the viability, T/C [30] was 31.8%. The viability, T/C [31] was 49.2%, the viability, T/C [32] was 44.6% and the viability, T/C [33] was 42.4%. The viability, T/C [34] was 35.9%, the viability, T/C [35] was 30.1% and the viability, T/C [36] was 24.2%.

CCCS(=O)(=O)Nc1ccc(F)c(C(=O)c2c[nH]c3ncc(-c4ccc(Cl)cc4)cc23)c1F + CC(Nc1ncnc2nc[nH]c12)c1cc2cccc(Cl)c2c(=O)n1-c1ccccc1 showed an IC50 (second compound 0.0316 µM) of 5600 nM, an IC50 (second compound 0.1 µM) of 5140 nM and an IC50 (second compound 0.316 µM) of 4670 nM. The IC50 (second compound 1 µM) was 3790 nM, the IC50 (second compound 3.16 µM) was 1930 nM and the IC50 (second compound 10 µM) was 372 nM. For the same compound, the viability, T/C [5] was 114%, the viability, T/C [6] was 109% and the viability, T/C (second compound 0.0316 µM, first compound 0.316 µM) was 102%. It also gave a viability, T/C (second compound 0.0316 µM, first compound 1 µM) of 89.8%, a viability, T/C (second compound 0.0316 µM, first compound 3.16 µM) of 66.8% and a viability, T/C (second compound 0.0316 µM, first compound 10 µM) of 32.7%. It also gave a viability, T/C [11] of 113%, a viability, T/C [12] of 108% and a viability, T/C (second compound 0.1 µM, first compound 0.316 µM) of 96.5%. For the same compound, the viability, T/C (second compound 0.1 µM, first compound 1 µM) was 82.8%, the viability, T/C (second compound 0.1 µM, first compound 3.16 µM) was 61.2% and the viability, T/C (second compound 0.1 µM, first compound 10 µM) was 34.5%. The viability, T/C [17] was 85.8%, the viability, T/C [18] was 95.3% and the viability, T/C (second compound 0.316 µM, first compound 0.316 µM) was 99.2%. For the same compound, the viability, T/C (second compound 0.316 µM, first compound 1 µM) was 79.4%, the viability, T/C (second compound 0.316 µM, first compound 3.16 µM) was 60.1% and the viability, T/C (second compound 0.316 µM, first compound 10 µM) was 32.3%. It also gave a viability, T/C [23] of 95.5%, a viability, T/C [24] of 82.9% and a viability, T/C (second compound 1 µM, first compound 0.316 µM) of 77.4%. It also gave a viability, T/C (second compound 1 µM, first compound 1 µM) of 71.9%, a viability, T/C (second compound 1 µM, first compound 3.16 µM) of 54.4% and a viability, T/C (second compound 1 µM, first compound 10 µM) of 30.5%. For the same compound, the viability, T/C [29] was 68.4%, the viability, T/C [30] was 70.9% and the viability, T/C (second compound 3.16 µM, first compound 0.316 µM) was 67.2%. It also gave a viability, T/C (second compound 3.16 µM, first compound 1 µM) of 56.5%, a viability, T/C (second compound 3.16 µM, first compound 3.16 µM) of 44.6% and a viability, T/C (second compound 3.16 µM, first compound 10 µM) of 26.4%. The viability, T/C [35] was 52.8%, the viability, T/C [36] was 55% and the viability, T/C (second compound 10 µM, first compound 0.316 µM) was 52.1%. For the same compound, the viability, T/C (second compound 10 µM, first compound 1 µM) was 43.3%, the viability, T/C (second compound 10 µM, first compound 3.16 µM) was 37.7% and the viability, T/C (second compound 10 µM, first compound 10 µM) was 23%.
